Inhibition in vivo, inhibition and melting point data for five compounds are collected here from patent US8642770B2, “Indole derivative” (Takeda Pharmaceutical Company Limited, priority 2010, dated 2014).

Data set [1] relates to Dietary obese male F344/Jcl rats. The data set can be described thus: Anorectic effect (food intake) in dietary obese male F344/Jcl rats. Type of data set: in vivo. As to conditions: Rattus norvegicus, 48 h; oral, 0.5% methylcellulose suspension (5 mg/mL) at 2 mL/kg, on start day and evening of next day; food intake from initial administration to 2 days later; vs control group; read-out: Food intake inhibition rate (%). The source says:
Evaluation of Anorectic Effect Using Dietary Obese Male F344/Jcl Rats
Dietary obese male F344/Jcl rats (42-57-week-old) reared on a high-fat diet (Research Diets: D12451) from 5 weeks of age were used. From before the start of experiment, the rats were independently raised, a powder high-fat diet (Research Diets: D12451M) was given, tap water was orally administered for acclimation, and thereby the rats were habituated. The food intake from the evening of the day before the start of experiment to the next morning was measured, and the rats were grouped based on the food intake and the body weight of the previous day as indices. On the day of the start of experiment and in the evening of the next day, 0.5% methylcellulose solution was orally administered to the control group, and 0.5% methylcellulose suspension (5 mg/mL) of the test compound was orally administered to the compound administration group at 2 mL/kg (6 per group for both control group and compound administration group). The food intake from the initial administration to 2 days later was measured. The food intake inhibition rate of each compound administration group to the control group was calculated.

Data set [2] deals with T1, human MCHR1 (Homo sapiens, UniProt Q99705).
T1 construct: expressed in transfected cells; host or cells: CHO cell clone 57 (membrane fraction)
The data set can be described thus: Human MCH receptor 1 (MCHR1) competitive binding assay, [125I]-MCH(4-19), CHO cell membrane fraction. As to conditions: test compound 0.1 μM, human MCHR1-expressing CHO cell membrane, 25° C., 1 hr, read-out: Binding inhibition rate (0.1 μM). Here is the method:
Determination of Human MCH Receptor 1 (MCHR1) Competitive Inhibitory Activity of Test Compound Using Binding Assay
Using human MCHR1(=SLC-1 receptor)-expressing CHO cell clone 57 and rat MCHR1-expressing CHO cell clone 44 described in WO01/82925, MCHR1-expressing CHO cellular membrane fractions were prepared by the following method. In phosphate buffered saline (pH 7.4) supplemented with 5 mM EDTA (ethylenediaminetetraacetic acid) were respectively suspended human and rat MCHR1-expressing CHO cells (1×10^8 cells) and centrifuged. Homogenate buffer (10 mL, 10 mM NaHCO3, 5 mM EDTA, pH 7.5, 0.5 mM PMSF (phenylmethylsulfonyl fluoride), 20 mg/L leupeptin, 4 mg/L E-64, 1 mg/L pepstatin A) was added to the pellets of the cells and, using Polytron Homogenizer, the mixture was homogenated. The supernatant obtained after centrifugation at 400×g for 10 min was further centrifuged at 100,000×g for 1 hr to give precipitate of the membrane fraction. The precipitate were suspended in 2 mL of assay buffer [20 mM Tris-HCl (pH 7.5), 5 mM EDTA, 0.5 mM PMSF, 20 mg/L leupeptin, 4 mg/L E-64, 1 mg/L pepstatin A]. The membrane fractions were suspended in assay buffer to a protein concentration of 2 mg/mL, and after dispensing, preserved at −80° C. and used upon thawing each time when in use.
The MCHR1 ligand binding inhibitory activity of the test compound was determined as follows. An MCHR1-expressing CHO cellular membrane fraction (175 μL) diluted with an assay buffer was dispensed to a 96 well polypropylene plate (3363, Corning). DMSO solution (2 μL), 100 μm cold MCH(1-19) diluted with DMSO solution (2 μL), or a test compound solution diluted with DMSO solution to various concentrations (2 μL) was added, and lastly, [^125I]-MCH(4-19) diluted with assay buffer (25 μL) was added to each well. The reaction mixture was reacted at 25° C. for 1 hr with stirring, and the reaction mixture was filtered by suction using a glass filter plate (GF/C, PerkinElmer). The filter was washed 3 times with a wash solution (300 μL, 50 mM Tris-HCl buffer, pH 7.5). The glass filter plate was dried, a liquid scintillator was added at 25 μL/well, and the residual radioactivity was measured by TopCount (PerkinElmer). The binding inhibition rate of the test compound was calculated by the following formula. Binding inhibition (%)=(radioactivity upon addition of test compound and hot MCH−radioactivity upon addition of cold MCH and hot MCH solution)/(radioactivity upon addition of DMSO solution and hot MCH−radioactivity upon addition of cold MCH and hot MCH solution)×100

The target of data set [3] is T1, human MCHR1. The data set can be described thus: MCH receptor 1 antagonistic activity, Ca2+ mobilization assay in human MCHR1-expressing CHO cells. Format: cell-based. To be noted: test compound 0.1 μM; human MCHR1-expressing CHO cell; ligand MCH (4-19) peptide 20 nM; Fluo4 fluorescence; read-out: Inhibition rate (%). Here is the method:
Measurement of MCH Receptor 1 Antagonistic Activity of Test Compound Using Ca^2+ Mobilization Assay
CHO cell (CHO dhfr^−, clone #4) expressing a recombinant human MCHR1 gene for Ca^2+ mobilization assay was prepared by us. The cell was cultured in MEMα medium [445 mL of MEMα medium without nucleic acid and added with 5 mL of Penicillin-Streptomycin (Invitrogen) and 50 mL of dialyzed fetal bovine serum]. An integrated dispensing function fluorometer (CellLux, PerkinElmer) was used for Ca^2+ mobilization assay. CHO cells were sown in a 96 well plate (type 3904, Corning) with a black plate wall and clear well bottom at a density of 20000 cells/well, and cultured in an incubator for about 24 hr at 5% CO2, 37° C. The medium was removed, and the cells were washed with phosphate buffered saline (PBS). A Ca^2+ indicator dye reagent (DOJINDO LABORATORIES, Ca screening no-wash kit Fluo4) was added at 90 μL/well, and the dye was allowed to penetrate into the cell for 30 min in an incubator at 5% CO2, 37° C. The plate was set on a plate reader, a test compound solution diluted with an assay buffer [10 mM HEPES (pH 7.4), 1× assay buffer containing 0.1% BSA (DOJINDO LABORATORIES, attached to Ca screening no-wash kit Fluo4)] or DMSO solution was added at 10 μL/well, and ligand MCH (4-19) peptide (final concentration 20 nM) diluted with assay buffer or DMSO was added at 50 μL/well, during which changes in intracellular fluorescence were measured at 2 second intervals. The antagonistic activity of the test compound was calculated and shown as an inhibition rate (%) wherein the intracellular fluorescence activity resulting from the stimulation by the addition of ligand MCH (4-19) peptide was 100% and that of the well added with DMSO solution alone was 0%.
A general note: Calcium flux is commonly read through the fluorescence of an indicator in the cells.

T1 sequence (Q99705 whole entry): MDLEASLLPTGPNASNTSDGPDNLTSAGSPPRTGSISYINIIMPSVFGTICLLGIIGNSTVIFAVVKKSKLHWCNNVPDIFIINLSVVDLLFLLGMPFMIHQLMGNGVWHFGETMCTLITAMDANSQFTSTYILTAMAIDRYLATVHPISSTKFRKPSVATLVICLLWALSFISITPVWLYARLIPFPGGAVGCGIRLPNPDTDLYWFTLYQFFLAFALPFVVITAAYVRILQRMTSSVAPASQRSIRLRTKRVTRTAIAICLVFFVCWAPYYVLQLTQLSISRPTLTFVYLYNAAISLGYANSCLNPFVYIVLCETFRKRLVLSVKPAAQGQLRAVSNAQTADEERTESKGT

Broadly, the inhibition is the relative decrease from the control value, in per cent. By melting point is commonly meant the temperature, or range, at which the solid turns liquid. As to `Cc1c(NC(=O)c2ccc(OCC3CC3)cc2)ccc2c1cc(CNCC(C)(C)O)n2C` [Example 50, 4-(cyclopropylmethoxy)-N-(2-{[(2-hydroxy-2-methylpropyl)amino]methyl}-1,4-dimethyl-1H-indol-5-yl)benzamide], the melting point is 175 to 176 °C. Further, the inhibition in vivo at 10 mg/kg in data set [1] was determined as 26.5%. The inhibition at 0.1 µM in data set [2] was found to be 97%. Further, the inhibition at 0.1 µM in data set [3] turned out to be 97%.

`Cc1c(NC(=O)c2ccc(OC[C@@H]3CCCO3)cc2)ccc2c1cc(CNCC1CCOCC1)n2C` [Example 55, N-(1,4-dimethyl-2-{[(tetrahydro-2H-pyran-4-ylmethyl)amino]methyl}-1H-indol-5-yl)-4-[(2S)-tetrahydrofuran-2-ylmethoxy]benzamide] had a melting point of 166 to 167 °C. Further, the inhibition in vivo at 10 mg/kg in data set [1] came to 22.7%. The inhibition at 0.1 µM in data set [2] is 98%. The inhibition at 0.1 µM in data set [3] worked out at 99%.

In the case of `Cc1c(NC(=O)c2ccc(OC[C@@H]3CCCO3)cc2F)ccc2c1cc(CNCC(C)(C)O)n2C` [Example 60, 2-fluoro-N-(2-{[(2-hydroxy-2-methylpropyl)amino]methyl}-1,4-dimethyl-1H-indol-5-yl)-4-[(2S)-tetrahydrofuran-2-ylmethoxy]benzamide], the melting point stood at 118 °C. For the same compound, in data set [1], the inhibition in vivo at 10 mg/kg was determined as 19.9%. The inhibition at 0.1 µM in data set [2] stood at 98%. Besides, the inhibition at 0.1 µM in data set [3] is 97%.

Regarding `Cc1c(NC(=O)c2ccc(OC[C@@H]3CCCO3)cc2)ccc2cc(CN[C@H]3CC[C@](C)(O)CC3)n(C)c12` [Example 84, N-(2-{[(trans-4-hydroxy-4-methylcyclohexyl)amino]methyl}-1,7-dimethyl-1H-indol-6-yl)-4-[(2S)-tetrahydrofuran-2-ylmethoxy]benzamide], the melting point was in the range of 171 to 172 °C. Besides, the inhibition in vivo at 10 mg/kg in data set [1] worked out at 12.1%. In addition, the inhibition at 0.1 µM in data set [2] was found to be 101%. Moreover, the inhibition at 0.1 µM in data set [3] was determined as 97%.

In turn, `Cc1c(NC(=O)c2ccc(OC[C@@H]3CCCO3)cc2F)ccc2cc(CN[C@H]3CC[C@](C)(O)CC3)n(C)c12` [Example 88, 2-fluoro-N-(2-{[(trans-4-hydroxy-4-methylcyclohexyl)amino]methyl}-1,7-dimethyl-1H-indol-6-yl)-4-[(2S)-tetrahydrofuran-2-ylmethoxy]benzamide] gave a melting point of 131 to 132 °C. In data set [1], the inhibition in vivo at 10 mg/kg is 17.5%. In data set [2], the inhibition at 0.1 µM is 95%. Also, in data set [3], the inhibition at 0.1 µM amounted to 98%.
